Test system: 782815-120-R-J1-PDC complex spheroid viability
Assay: Anticancer human tumor 782815-120-R-J1-PDC patient-derived colon adenocarcinoma cell line growth inhibition [RAS]
Conditions: for IC50: curve of first compound; for viability, T/C: stronger effect = lower value; active = viability on the fitted dose curve at most 10% of control; inactive = the rest
Procedure, shortened: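 Tumour cells grown as complex spheroids with HUVEC endothelial cells and mesenchymal stem cells, treated with RAS pathway inhibitor combinations. Each agent spans half-log steps from near clinical Cmax, or 10 microM where Cmax is unknown.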

[1] = second compound 0.000949 µM, first compound 0.0316 µM
[2] = second compound 0.000949 µM, first compound 0.1 µM
[3] = second compound 0.000949 µM, first compound 0.316 µM
[4] = second compound 0.000949 µM, first compound 1 µM
[5] = second compound 0.003 µM, first compound 0.0316 µM
[6] = second compound 0.003 µM, first compound 0.1 µM
[7] = second compound 0.003 µM, first compound 0.316 µM
[8] = second compound 0.003 µM, first compound 1 µM
[9] = second compound 0.00949 µM, first compound 0.0316 µM
[10] = second compound 0.00949 µM, first compound 0.1 µM
[11] = second compound 0.00949 µM, first compound 0.316 µM
[12] = second compound 0.00949 µM, first compound 1 µM
[13] = second compound 0.03 µM, first compound 0.0316 µM
[14] = second compound 0.03 µM, first compound 0.1 µM
[15] = second compound 0.03 µM, first compound 0.316 µM
[16] = second compound 0.03 µM, first compound 1 µM
[17] = second compound 0.0949 µM, first compound 0.0316 µM
[18] = second compound 0.0949 µM, first compound 0.1 µM
[19] = second compound 0.0949 µM, first compound 0.316 µM
[20] = second compound 0.0949 µM, first compound 1 µM
[21] = second compound 0.3 µM, first compound 0.0316 µM
[22] = second compound 0.3 µM, first compound 0.1 µM
[23] = second compound 0.3 µM, first compound 0.316 µM
[24] = second compound 0.3 µM, first compound 1 µM
[25] = second compound 0.000949 µM, first compound 3.16 µM
[26] = second compound 0.000949 µM, first compound 10 µM
[27] = second compound 0.003 µM, first compound 3.16 µM
[28] = second compound 0.003 µM, first compound 10 µM
[29] = second compound 0.00949 µM, first compound 3.16 µM
[30] = second compound 0.00949 µM, first compound 10 µM
[31] = second compound 0.03 µM, first compound 3.16 µM
[32] = second compound 0.03 µM, first compound 10 µM
[33] = second compound 0.0949 µM, first compound 3.16 µM
[34] = second compound 0.0949 µM, first compound 10 µM
[35] = second compound 0.3 µM, first compound 3.16 µM
[36] = second compound 0.3 µM, first compound 10 µM
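Note: spheroids exposed to compounds for 7 days before reading.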
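Throughout, for viability, T/C: 100% = DMSO vehicle control viability.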

CCN1CCN(Cc2ccc(Nc3ncc(F)c(-c4cc(F)c5nc(C)n(C(C)C)c5c4)n3)nc2)CC1 + CCn1c(-c2cccnc2C(C)OC)c2c3cc(ccc31)N1CCOC(CC(NC(=O)C(C(C)C)N(C)C(=O)C3(F)CCN(C(=O)C#CC(C)(C)N(C)C)CC3)C(=O)N3CCCC(N3)C(=O)OCC(C)(C)C2)C1
inactive: viability, T/C (second compound 0.000949 µM, first compound 0.00316 µM) 104% | viability, T/C (second compound 0.000949 µM, first compound 0.01 µM) 99.3% | viability, T/C [1] 106% | viability, T/C [2] 92% | viability, T/C [3] 124% | viability, T/C [4] 125% | viability, T/C (second compound 0.003 µM, first compound 0.00316 µM) 95% | viability, T/C (second compound 0.003 µM, first compound 0.01 µM) 97% | viability, T/C [5] 95.7% | viability, T/C [6] 98% | viability, T/C [7] 118% | viability, T/C [8] 121% | viability, T/C (second compound 0.00949 µM, first compound 0.00316 µM) 96.3% | viability, T/C (second compound 0.00949 µM, first compound 0.01 µM) 99.6% | viability, T/C [9] 102% | viability, T/C [10] 103% | viability, T/C [11] 118% | viability, T/C [12] 127% | viability, T/C (second compound 0.03 µM, first compound 0.00316 µM) 99.8% | viability, T/C (second compound 0.03 µM, first compound 0.01 µM) 109% | viability, T/C [13] 101% | viability, T/C [14] 102% | viability, T/C [15] 117% | viability, T/C [16] 127% | viability, T/C (second compound 0.0949 µM, first compound 0.00316 µM) 92.3% | viability, T/C (second compound 0.0949 µM, first compound 0.01 µM) 95.5% | viability, T/C [17] 97% | viability, T/C [18] 102% | viability, T/C [19] 123% | viability, T/C [20] 134% | viability, T/C (second compound 0.3 µM, first compound 0.00316 µM) 92.8% | viability, T/C (second compound 0.3 µM, first compound 0.01 µM) 91.6% | viability, T/C [21] 104% | viability, T/C [22] 110% | viability, T/C [23] 122% | viability, T/C [24] 122%
> 1 µM: IC50 (second compound 0.000949 µM) | IC50 (second compound 0.003 µM) | IC50 (second compound 0.00949 µM) | IC50 (second compound 0.03 µM) | IC50 (second compound 0.0949 µM) | IC50 (second compound 0.3 µM)

C[C@@H](NC(=O)c1ncnc(N)c1Cl)c1ncc(C(=O)Nc2cc(C(F)(F)F)c(Cl)cn2)s1 + CCn1c(-c2cccnc2C(C)OC)c2c3cc(ccc31)N1CCOC(CC(NC(=O)C(C(C)C)N(C)C(=O)C3(F)CCN(C(=O)C#CC(C)(C)N(C)C)CC3)C(=O)N3CCCC(N3)C(=O)OCC(C)(C)C2)C1
inactive: viability, T/C [1] 106% | viability, T/C [2] 103% | viability, T/C [3] 105% | viability, T/C [4] 79.2% | viability, T/C [25] 56.9% | viability, T/C [26] 56.3% | viability, T/C [5] 107% | viability, T/C [6] 100% | viability, T/C [7] 103% | viability, T/C [8] 65.6% | viability, T/C [27] 59.6% | viability, T/C [28] 51.9% | viability, T/C [9] 104% | viability, T/C [10] 108% | viability, T/C [11] 91.2% | viability, T/C [12] 83.1% | viability, T/C [29] 61.2% | viability, T/C [30] 55% | viability, T/C [13] 103% | viability, T/C [14] 110% | viability, T/C [15] 93.7% | viability, T/C [16] 79.2% | viability, T/C [31] 72.4% | viability, T/C [32] 53.3% | viability, T/C [17] 96.6% | viability, T/C [18] 101% | viability, T/C [19] 93.4% | viability, T/C [20] 78.4% | viability, T/C [33] 61.1% | viability, T/C [34] 49.4% | viability, T/C [21] 89.3% | viability, T/C [22] 95% | viability, T/C [23] 96.4% | viability, T/C [24] 84% | viability, T/C [35] 69.8% | viability, T/C [36] 52.5%
9.85 µM: IC50 (second compound 0.0949 µM)
> 10 µM: IC50 (second compound 0.000949 µM) | IC50 (second compound 0.003 µM) | IC50 (second compound 0.00949 µM) | IC50 (second compound 0.03 µM) | IC50 (second compound 0.3 µM)

Cc1nc(N2CCC3(CC2)COC(C)C3N)c(CO)nc1Sc1ccnc(N)c1Cl (stereo unspecified) + CCn1c(-c2cccnc2C(C)OC)c2c3cc(ccc31)N1CCOC(CC(NC(=O)C(C(C)C)N(C)C(=O)C3(F)CCN(C(=O)C#CC(C)(C)N(C)C)CC3)C(=O)N3CCCC(N3)C(=O)OCC(C)(C)C2)C1
inactive: viability, T/C [1] 108% | viability, T/C [2] 88% | viability, T/C [3] 99.2% | viability, T/C [4] 94.2% | viability, T/C [25] 98.6% | viability, T/C [26] 93.6% | viability, T/C [5] 93.1% | viability, T/C [6] 95.5% | viability, T/C [7] 104% | viability, T/C [8] 94.5% | viability, T/C [27] 96% | viability, T/C [28] 95.7% | viability, T/C [9] 95.2% | viability, T/C [10] 95.7% | viability, T/C [11] 91.4% | viability, T/C [12] 98.9% | viability, T/C [29] 111% | viability, T/C [30] 94% | viability, T/C [13] 101% | viability, T/C [14] 92.6% | viability, T/C [15] 92.2% | viability, T/C [16] 98.6% | viability, T/C [31] 102% | viability, T/C [32] 87.7% | viability, T/C [17] 94.5% | viability, T/C [18] 99.6% | viability, T/C [19] 103% | viability, T/C [20] 95.7% | viability, T/C [33] 101% | viability, T/C [34] 90.1% | viability, T/C [21] 93.3% | viability, T/C [22] 90.1% | viability, T/C [23] 87.5% | viability, T/C [24] 96% | viability, T/C [35] 101% | viability, T/C [36] 91%
> 10 µM: IC50 (second compound 0.000949 µM) | IC50 (second compound 0.003 µM) | IC50 (second compound 0.00949 µM) | IC50 (second compound 0.03 µM) | IC50 (second compound 0.0949 µM) | IC50 (second compound 0.3 µM)
